In paper PMC6539525, “Design, Synthesis, and Mechanism of Dihydroartemisinin–Coumarin Hybrids as Potential Anti-Neuroinflammatory Agents” (Molecules, 2019):
Read-outs that look alike come from different tables or passages of the source.

Tests used:
[1] = test system: NO release of LPS-induced microglial N9 cells; test: Inhibition of NO release in LPS-induced N9 cells (Griess); format: cell-based, murine; conditions: Mus musculus, 1 μg/mL LPS for 48 h, NO level in medium
Experimental: (§1) The anti-neuroinflammatory activity of DCH was evaluated and then the representative compounds were selected for the further study. […] In addition, in order to exclude the death influence, MTT-IC20 of all the compounds were measured. […] The exact reason was still unclear, but we supposed that it might be related to the homeostasis of cells. The tumor cells actually were always in hypoxia condition, in which DCH could promote the cytotoxic activity against tumor cells. In brief, DCH could reduce the release of NO caused by LPS-induced microglial cells.
(§2) N9 cells, which were in the logarithmic phase, were incubated for 24 h by adherent culture. Subsequently, the medium was changed to new one without serum. The cells were treated with different concentration of tested compounds. After specific time in the LPS condition, the supernatants were collected and analyzed.
The nitrite levels in medium were determined by Griess reaction. The absorbance was measured at 540 nm using a microplate reader.

MDA-MB-231 cells = test: MTT cytotoxicity in MDA-MB-231 cells; format: cell-based; conditions: Homo sapiens
Experimental: (§3) As the anti-neuroinflammatory agents for cancer patients, all newly synthesized compounds were evaluated in vitro for antitumor activity against human breast cancer cell line MDA-MB-231, colorectal cancer cells HT-29 and HCT-116, and lung cancer cell line A549 by using the standard MTT method, respectively. Doxorubicin (DOX) and DHA were used as the reference standard. Additionally, owing to the rapid proliferation, the tumor cells actually was always in hypoxia condition. Therefore, the in vitro cytotoxicity was evaluated in two different conditions (hypoxia and normoxia).
(§4) After recovery, the cells were cultured in 96-well plates for 24 h at 37 °C in a humidified atmosphere with 95% air and 5% CO2. After treated with different tested compounds, the hypoxia groups were placed in a sealed hypoxia incubator chamber (Stemcell Technologies, Inc., Vancouver, BC, Canada) filled with 5% CO2 and 95% N2 for 24 h, and then transferred to the incubator chamber filled with air for 72 h. On the contrary, the normoxia groups were cultured under air condition for 96h.
(§5) Cancer cells HT-29 (Human Colorectal Adenocarcinoma cell line), MDA-MB-231 (Human Breast Cancer cell line), HCT-116 (Human Colorectal Carcinoma cell line), and A549 (Human Lung Adenocarcinomic cell line) were from ATCC.
(§6) When the adherent cells reached 80% confluence, the culture medium was discarded. The cells were digested by trypsin and collected after centrifugation. The fresh culture medium was gently blown into it to form single-cell suspension. Cell suspension will be diluted to 1.5–3 × 10^4 cells/mL. Each hole of 96-well plates was added 100 μL cell suspension and incubated for 24 h (5% CO2; 37 °C). Then the holes were added different concentrations of tested compounds. The early screening concentration is set to 100 μM, 50 μM, 25 μM, 12.5 μM, and 6.25 μM. Three replicates were made for each concentration of the tested compounds. After the cells were grown for 96h, 20 μL MTT (5 mg/mL) was added to each well and incubated for 4 h. The medium was discarded and each well was added 100 μL DMSO to dissolve the formazan blue. Absorbance was measured at 570 nm with a microplate reader (Synergy-HT, BioTek Instruments, Winooski, VT, USA).
(§7) Hypoxia condition: The cells were treated with different concentration of tested compounds, placed in hypoxia chamber (Catalog Number 27310, Stemcell Technologies, Inc., Vancouver, BC, Canada), and incubated for 24 h ([…]; 37 °C). Then the cells were placed in normoxia condition (5% CO2; 37 °C) and incubated for 72 h.

A549 cells = test: MTT cytotoxicity in A549 cells; format: cell-based; conditions: Homo sapiens
Experimental: as §3, §4, §5, §6, §7

HT-29 cells = test: MTT cytotoxicity in HT-29 cells; format: cell-based, Human; conditions: Homo sapiens, MTT
Experimental: as §3
as §4, with “On the contrary, the normoxia groups were cultured under air condition for 96h.” left out
as §5
as §6, with “After the cells were grown for 96h, 20 μL MTT (5 mg/mL) was added to each well and incubated for 4 h.” left out, “USA). […]” for “USA).”

[2] = MTT cytotoxicity in N9 cells; format: cell-based, murine; conditions: mouse, N9 microglial cells, cytotoxic activity
Experimental: as §1, §6, §2

HCT-116 cells = test: MTT cytotoxicity in HCT-116 cells; format: cell-based; conditions: Homo sapiens
Experimental: as §3, §4, §5, §6, §7

[3] = MDA-MB-231, hypoxia 24 h then normoxia 72 h, read-out: IC50 MDA-MB-231 Hypoxia
[4] = MDA-MB-231, normoxia 96 h, read-out: IC50 MDA-MB-231 Normoxia
[5] = A549, hypoxia 24 h then normoxia 72 h, read-out: IC50 A549 Hypoxia
[6] = A549, normoxia 96 h, read-out: IC50 A549 Normoxia
[7] = HT-29, hypoxia 24 h then normoxia 72 h, read-out: IC50 HT-29 Hypoxia
[8] = HT-29, normoxia 96 h, read-out: IC50 HT-29 Normoxia
[9] = HCT-116, hypoxia 24 h then normoxia 72 h, read-out: IC50 HCT-116 Hypoxia
[10] = HCT-116, normoxia 96 h, read-out: IC50 HCT-116 Normoxia

| Structure (SMILES) | IC50 [1] | IC50 (MDA-MB-231 cells; [3]) | IC50 (MDA-MB-231 cells; [4]) | IC50 (A549 cells; [5]) | IC50 (A549 cells; [6]) | IC50 (HT-29 cells; [7]) | IC50 (HT-29 cells; [8]) | IC20 [2] | IC50 (HCT-116 cells; [9]) | IC50 (HCT-116 cells; [10]) |
| --- | --- | --- | --- | --- | --- | --- | --- | --- | --- | --- |
| Cc1cc(C)c2c(Cn3cc(CO[C@H]4O[C@@H]5O[C@@]6(C)CC[C@H]7[C@H](C)CC[C@@H]([C@H]4C)[C@@]57OO6)nn3)cc(=O)oc2c1 [3g, 5,7-dimethyl-4-((4-((10S)-dihydroartemisininoxy)methyl-1H-1,2,3-triazol-1-yl)-methyl)-2H-1-chromen-2-one] | > 10 µM | > 100 µM | > 100 µM | > 100 µM | > 100 µM | 15.9 µM | 23.9 µM | > 10 µM | > 100 µM | > 100 µM |
| C[C@H]1[C@@H](OCCc2cn(Cc3cc(=O)oc4cc(O)ccc34)nn2)O[C@@H]2O[C@@]3(C)CC[C@H]4[C@H](C)CC[C@@H]1[C@@]24OO3 [4f, 7-hydroxy-4-((4-(2-((10S)-dihydroartemisininoxy)ethyl)-1H-1,2,3-triazol-1-yl)-methyl)-2H-1-chromen-2-one] | 2.03 µM | 78.8 µM | > 100 µM | > 100 µM | > 100 µM | 11.3 µM | 32.3 µM | > 10 µM | > 100 µM | > 100 µM |
| COc1cccc2c1C(=O)c1c(O)c3c(c(O)c1C2=O)C[C@@](O)(C(=O)CO)C[C@@H]3O[C@H]1C[C@H](N)[C@H](O)[C@H](C)O1 [DOX, Doxorubicin, reference compound] |  | 0.69 µM | 1.37 µM | > 2 µM | > 2 µM | < 0.1 µM | 0.11 µM |  | > 2 µM | 1.29 µM |
| C[C@H]1[C@@H](O)O[C@@H]2O[C@@]3(C)CC[C@H]4[C@H](C)CC[C@@H]1[C@@]24OO3 [DHA, Dihydroartemisinin] | 1.58 µM | 45.9 µM | > 100 µM | > 100 µM | > 100 µM | 11.7 µM | 51.1 µM | > 10 µM | 25.9 µM | 10.3 µM |
| Cc1cc(C)c2c(Cn3cc(CCO[C@H]4O[C@@H]5O[C@@]6(C)CC[C@H]7[C@H](C)CC[C@@H]([C@H]4C)[C@@]57OO6)nn3)cc(=O)oc2c1 [4g, 5,7-dimethyl-4-((4-(2-((10S)-dihydroartemisininoxy)ethyl)-1H-1,2,3-triazol-1-yl)-methyl)-2H-1-chromen-2-one] | 1.36 µM | 22.7 µM | > 100 µM | > 100 µM | > 100 µM | 9.33 µM | 13.8 µM | > 10 µM | 25.7 µM | 34.5 µM |
| C[C@H]1[C@@H](OCc2cn(Cc3cc(=O)oc4cc(O)ccc34)nn2)O[C@@H]2O[C@@]3(C)CC[C@H]4[C@H](C)CC[C@@H]1[C@@]24OO3 [3f, 7-hydroxy-4-((4-((10S)-dihydroartemisininoxy)methyl-1H-1,2,3-triazol-1-yl)-methyl)-2H-1-chromen-2-one] | 0.37 µM | 63.1 µM | > 100 µM | 98 µM | > 100 µM | 15.5 µM | 37.8 µM | > 10 µM | 67.7 µM | > 100 µM |
| Cc1ccc2c(Cn3cc(CCO[C@H]4O[C@@H]5O[C@@]6(C)CC[C@H]7[C@H](C)CC[C@@H]([C@H]4C)[C@@]57OO6)nn3)cc(=O)oc2c1 [4h, 7-methyl-4-((4-(2-((10S)-dihydroartemisininoxy)ethyl)-1H-1,2,3-triazol-1-yl)-methyl)-2H-1-chromen-2-one] | 5.69 µM | > 100 µM | > 100 µM | > 100 µM | > 100 µM | 56.4 µM | > 100 µM | > 10 µM | > 100 µM | > 100 µM |
| Cc1ccc2c(Cn3cc(CO[C@H]4O[C@@H]5O[C@@]6(C)CC[C@H]7[C@H](C)CC[C@@H]([C@H]4C)[C@@]57OO6)nn3)cc(=O)oc2c1 [3h, 7-methyl-4-((4-((10S)-dihydroartemisininoxy)methyl-1H-1,2,3-triazol-1-yl)-methyl)-2H-1-chromen-2-one] | > 10 µM | > 100 µM | > 100 µM | > 100 µM | > 100 µM | 32 µM | > 100 µM | > 10 µM | > 100 µM | > 100 µM |
| C[C@H]1[C@@H](OCCn2cc(COc3cc(=O)oc4ccccc34)nn2)O[C@@H]2O[C@@]3(C)CC[C@H]4[C@H](C)CC[C@@H]1[C@@]24OO3 [5j] | 1.59 µM | 69.4 µM | 100 µM | > 100 µM | > 100 µM | 12.2 µM | 30 µM | > 10 µM | > 100 µM | 77.2 µM |
| Cc1ccc2oc(=O)cc(Cn3cc(CO[C@H]4O[C@@H]5O[C@@]6(C)CC[C@H]7[C@H](C)CC[C@@H]([C@H]4C)[C@@]57OO6)nn3)c2c1 [3i, 6-methyl-4-((4-((10S)-dihydroartemisininoxy)methyl-1H-1,2,3-triazol-1-yl)-methyl)-2H-1-chromen-2-one] | 0.72 µM | 22.8 µM | > 100 µM | 62.3 µM | > 100 µM | 8.57 µM | 16.4 µM | > 10 µM | > 100 µM | 65 µM |
| Cc1ccc2oc(=O)cc(Cn3cc(CCO[C@H]4O[C@@H]5O[C@@]6(C)CC[C@H]7[C@H](C)CC[C@@H]([C@H]4C)[C@@]57OO6)nn3)c2c1 [4i, 6-methyl-4-((4-(2-((10S)-dihydroartemisininoxy)ethyl)-1H-1,2,3-triazol-1-yl)-methyl)-2H-1-chromen-2-one] | > 10 µM | > 100 µM | > 100 µM | > 100 µM | > 100 µM | 39 µM | > 100 µM | > 10 µM | > 100 µM | > 100 µM |
| CN(C)c1ccc(O)c2c1C[C@H]1C[C@H]3[C@H](N(C)C)C(O)=C(C(N)=O)C(=O)[C@@]3(O)C(O)=C1C2=O [Minocycline, reference compound] | > 10 µM |  |  |  |  |  |  | > 10 µM |  |  |
